# In patent US8008299B2, “Urotensin II receptor antagonists” (Janssen Pharmaceutica, N.V., priority 2007, dated 2011):
# Like-named read-outs stand apart in the source and are kept apart here.
# Experiments:
# [1] = molecular target: T1, rat GPR14 (U-II receptor) (Rattus norvegicus, UniProt P49684); test: Rat UII Calcium Mobilization FLIPR Assay; assay type: cell-based; conditions: CHO cells transfected with rat GPR14; antagonist activity after 5 min incubation vs agonist (Ac)-CFWK(2-NaI)C-NH2 at 1 nM
# T1 construct: expressed in transfected cells
# T1 sequence (P49684 1-386): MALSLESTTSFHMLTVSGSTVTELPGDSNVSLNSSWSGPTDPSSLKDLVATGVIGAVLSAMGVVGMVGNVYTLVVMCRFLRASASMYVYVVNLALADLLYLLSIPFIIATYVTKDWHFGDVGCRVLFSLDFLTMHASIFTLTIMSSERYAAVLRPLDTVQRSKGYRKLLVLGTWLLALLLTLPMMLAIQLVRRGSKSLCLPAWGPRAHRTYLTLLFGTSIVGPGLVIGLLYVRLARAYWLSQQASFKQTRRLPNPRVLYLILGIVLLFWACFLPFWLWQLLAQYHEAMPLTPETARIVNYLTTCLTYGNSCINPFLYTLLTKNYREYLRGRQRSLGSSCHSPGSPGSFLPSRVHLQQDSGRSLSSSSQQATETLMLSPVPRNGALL
# Excerpt: To derive these cells, the complete coding sequence of rat U-II (Genbank Accession No. U32673) was amplified by nested PCR from rat heart marathon-Ready cDNA. […] The PCR products were cloned into pcDNA3 (Invitrogen) digested with EcoR I and Xba I. Clones containing rat U-II receptor were verified by complete sequencing of the U-II receptor insert to ensure a lack of PCR-introduced errors. The constructed vector was transfected into CHO cells by using lipofectamine (GIBCO BRL). CHO cells with high expression of rat U-II receptor were selected and established as stable cell lines by using G418. CHO cells were seeded at 25,000 cells per well into 96-well, black-wall, clear-bottom microtiter plates 24 h before assay. Cells in culture media (DMEM/F12 containing 15 mM HEPES, L-glutamine, pyridoxine hydrochloride; 10% fetal bovine serum; 1 mg/mL G418 sulfate; antibiotic-antimycotic; pH 7.4) were loaded with proprietary dye, from the FLIPR Calcium Assay Kit (Molecular Devices), prepared in assay buffer (Hanks Balanced Salts Solution, 20 mM HEPES, 0.1% BSA, 2.5 mM probenecid, pH 7.4), and incubated for 1 h at 37° C. Calcium mobilization determinations were performed at room temperature (23° C.).
# [2] = molecular target: T2, Human UII (U-II receptor) in 6D9 human rhabdomyosarcoma cells (Homo sapiens, UniProt Q9UKP6); test: Human UII Calcium Mobilization Assay; assay type: cell-based; conditions: 6D9 human rhabdomyosarcoma cells, FLIPR TETRA, average; read-out: Human UII Ca+ Mobilization Average IC50
# T2 construct: 6D9: isolated by dilution subcloning of RMS13 cells, ATCC® Number: CRL-2061; host or cells: 6D9 human rhabdomyosarcoma cells (subclone of RMS13)
# T2 sequence (Q9UKP6 1-389): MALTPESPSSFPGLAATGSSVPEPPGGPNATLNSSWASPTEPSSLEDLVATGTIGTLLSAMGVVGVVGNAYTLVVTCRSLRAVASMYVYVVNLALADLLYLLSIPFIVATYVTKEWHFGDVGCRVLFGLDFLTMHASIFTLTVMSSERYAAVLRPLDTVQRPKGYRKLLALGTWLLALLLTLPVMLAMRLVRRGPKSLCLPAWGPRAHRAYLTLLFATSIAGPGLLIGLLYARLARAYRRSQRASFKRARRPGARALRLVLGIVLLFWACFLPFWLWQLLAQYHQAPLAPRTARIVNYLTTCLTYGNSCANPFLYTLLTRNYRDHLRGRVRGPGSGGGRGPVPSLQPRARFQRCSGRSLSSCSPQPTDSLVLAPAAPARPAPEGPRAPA
# Method: 25 μL of dye solution was added to the wells such that the final liquid volume before agonist/antagonist treatment was 50 μL for all assays. The cell plates were incubated at 37° C. for 45 minutes and the fluorescence intensity was measured on a Fluorometric Imaging Plate Reader (FLIPR^TETRA, Molecular Devices, Sunnyvale, Calif.).
# Antagonist and agonist U-II were added at room temperature on the FLIPR^TETRA, and the fluorescence intensity before and after addition was measured over a period of 4 minutes. The dye incubation time and temperature as well as instrument setting was adjusted so the fluorescence intensity could be compared between plates on the same day. EC50 and IC50 were analyzed using GraphPad Prism 4 software (GraphPad Software Inc., San Diego, Calif.).
# For assays, U-II agonist, U-II antagonist and urantide were diluted with HBSS/HEPES containing 0.01% FBS.
# Test compounds were dissolved in DMSO at 10 mM concentration. The serial dilutions were carried out in HBSS/HEPES. The highest final DMSO concentration was at 0.1%.
# [3] = molecular target: T3, UT receptors in HSMM (Human Skeletal Muscle Myoblasts) (Homo sapiens, UniProt Q9UKP6); test: Human Radioligand Binding Assay ((^125I)-U-II binding to intact HSMM)
# T3 sequence (Q9UKP6 1-389): T2 sequence (Q9UKP6 1-389)
IC50 [1] [nM],IC50 [2] [nM],Ki [3] [nM],SMILES,"Ki ([3]; read-out: Human UII Average Binding Ki, intact HSMM, 0.150 nM (^125I)-U-II, 3 h, 25° C.) [nM]"
34,491,48,"CCc1ccnc(NCCC[C@H](c2ccc(OC)c(OC)c2)N2Cc3c(cccc3N3CCN(CC)CC3)C2=O)n1 [Cpd 20, 2-[(1R)-1-(3,4-dimethoxy-phenyl)-4-(4-ethyl-pyrimidin-2-ylamino)-butyl]-4-(4-ethyl-piperazin-1-yl)-2,3-dihydro-isoindol-1-one]",
4,620,8,"CCN1CCN(c2cccc3c2CN([C@H](CCCNc2nccc(OC)n2)c2ccc(OC)c(OC)c2)C3=O)CC1 [Cpd 21, 2-[(1R)-1-(3,4-dimethoxy-phenyl)-4-(4-methoxy-pyrimidin-2-ylamino)-butyl]-4-(4-ethyl-piperazin-1-yl)-2,3-dihydro-isoindol-1-one]",
3,187,13,"CCN1CCN(c2cccc3c2CN([C@H](CCCNc2nccc(C(F)(F)F)n2)c2ccc(OC)c(OC)c2)C3=O)CC1 [Cpd 22, 2-[(1R)-1-(3,4-dimethoxy-phenyl)-4-(4-trifluoromethyl-pyrimidin-2-ylamino)-butyl]-4-(4-ethyl-piperazin-1-yl)-2,3-dihydro-isoindol-1-one]",
19,316,13,"CCN1CCN(c2cccc3c2CN([C@H](CCCNc2nccc(C)n2)c2ccc(OC)c(OC)c2)C3=O)CC1 [Cpd 23, 2-[(1R)-1-(3,4-dimethoxy-phenyl)-4-(4-methyl-pyrimidin-2-ylamino)-butyl]-4-(4-ethyl-piperazin-1-yl)-2,3-dihydro-isoindol-1-one]",
145,2110,301,"CCN1CCN(c2cccc3c2CN([C@H](CCCn2cncn2)c2ccc(OC)c(OC)c2)C3=O)CC1 [Cpd 25, 2-[(1R)-1-(3,4-dimethoxy-phenyl)-4-[1,2,4]triazol-1-yl-butyl]-4-(4-ethyl-piperazin-1-yl)-2,3-dihydro-isoindol-1-one]",
3,106,19,"CCN1CCN(c2cccc3c2CN([C@H](CCCSc2nc(C)cc(C)n2)c2ccc(OC)c(OC)c2)C3=O)CC1 [Cpd 27, 2-[(1R)-1-(3,4-dimethoxy-phenyl)-4-(4,6-dimethyl-pyrimidin-2-ylsulfanyl)-butyl]-4-(4-ethyl-piperazin-1-yl)-2,3-dihydro-isoindol-1-one]",
25,1210,154,"COc1ccc([C@@H](CCCOc2ccccc2)N2Cc3c(cccc3N3CCN(C4CC4)CC3)C2=O)cc1OC [Cpd 28, 4-(4-cyclopropyl-piperazin-1-yl)-2-[(1R)-1-(3,4-dimethoxy-phenyl)-4-phenoxy-butyl]-2,3-dihydro-isoindol-1-one]",
14,380,56,"CCN1CCN(c2cccc3c2CN([C@H](CCCn2cnc4ccccc42)c2ccc(OC)c(OC)c2)C3=O)CC1 [Cpd 29, 2-[(1R)-4-benzoimidazol-1-yl-1-(3,4-dimethoxy-phenyl)-butyl]-4-(4-ethyl-piperazin-1-yl)-2,3-dihydro-isoindol-1-one]",
11,602,135,"CCN1CCN(c2cccc3c2CN([C@H](CCCSc2cccc[n+]2[O-])c2ccc(OC)c(OC)c2)C3=O)CC1 [Cpd 31, {(4R)-4-(3,4-dimethoxy-phenyl)-4-[4-(4-ethyl-piperazin-1-yl)-1-oxo-1,3-dihydro-isoindol-2-yl]-butylsulfanyl}-pyridine 1-oxide]",
45,2040,157,"CCN1CCN(c2cccc3c2CN([C@H](CCCn2ccnc2)c2ccc(OC)c(OC)c2)C3=O)CC1 [Cpd 32, 2-[(1R)-1-(3,4-dimethoxy-phenyl)-4-imidazol-1-yl-butyl]-4-(4-ethyl-piperazin-1-yl)-2,3-dihydro-isoindol-1-one]",
307,4680,520,"COc1ccc([C@@H](CCCN(C)c2ccccc2)N2Cc3c(cccc3N3CCNCC3)C2=O)cc1OC [Cpd 33, 2-[(1R)-1-(3,4-dimethoxy-phenyl)-4-(methyl-phenyl-amino)-butyl]-4-piperazin-1-yl-2,3-dihydro-isoindol-1-one]",
105,310,32,"COc1ccc([C@@H](CCCOc2ccccc2)N2Cc3c(cccc3N3CCN(Cc4ccccc4)CC3)C2=O)cc1OC [Cpd 34, 4-(4-benzyl-piperazin-1-yl)-2-[(1R)-1-(3,4-dimethoxy-phenyl)-4-phenoxy-butyl]-2,3-dihydro-isoindol-1-one]",
1900,> 10000,1100,"COc1ccc([C@@H](CCCn2ccnc2)N2Cc3c(cccc3N3CCNCC3)C2=O)cc1OC [Cpd 35, 2-[(1R)-1-(3,4-dimethoxy-phenyl)-4-imidazol-1-yl-butyl]-4-piperazin-1-yl-2,3-dihydro-isoindol-1-one]",
19,1150,122,"COc1ccc([C@@H](CCCSc2ccccc2)N2Cc3c(cccc3N3CCNCC3)C2=O)cc1OC [Cpd 36, 2-[(1R)-1-(3,4-dimethoxy-phenyl)-4-phenylsulfanyl-butyl]-4-piperazin-1-yl-2,3-dihydro-isoindol-1-one]",
14,448,50,"COc1ccc([C@@H](CCCOc2ccccc2)N2Cc3c(cccc3N3CCNCC3)C2=O)cc1OC [Cpd 37, 2-[(1R)-1-(3,4-dimethoxy-phenyl)-4-phenoxy-butyl]-4-piperazin-1-yl-2,3-dihydro-isoindol-1-one]",
185,2850,> 300,"CC[N+]1(C)CCN(c2cccc3c2CN([C@H](CCCN(Cc2ccccc2)Cc2ccccc2)c2ccc(OC)c(OC)c2)C3=O)CC1 [Cpd 38, 4-{2-[(1R)-4-dibenzylamino-1-(3,4-dimethoxy-phenyl)-butyl]-1-oxo-2,3-dihydro-1H-isoindol-4-yl}-1-ethyl-1-methyl-piperazin-1-ium]",
138,988,162,"CCN1CCN(c2cccc3c2CN([C@H](CCCN(C)S(=O)(=O)c2cn(C)c(C)n2)c2ccc(OC)c(OC)c2)C3=O)CC1 [Cpd 39, 1,2-dimethyl-1H-imidazole-4-sulfonic acid {(4R)-4-(3,4-dimethoxy-phenyl)-4-[4-(4-ethyl-piperazin-1-yl)-1-oxo-1,3-dihydro-isoindol-2-yl]-butyl}-methyl-amide]",

SMILES,IC50 [1] [nM],IC50 [2] [nM],Ki [3] [nM],"Ki ([3]; read-out: Human UII Average Binding Ki, intact HSMM, 0.150 nM (^125I)-U-II, 3 h, 25° C.) [nM]"
"COc1ccc([C@@H](CCCN(C)S(=O)(=O)c2cccs2)N2Cc3c(cccc3N3CCNCC3)C2=O)cc1OC [Cpd 30, thiophene-2-sulfonic acid [(4R)-4-(3,4-dimethoxy-phenyl)-4-(1-oxo-4-piperazin-1-yl-1,3-dihydro-isoindol-2-yl)-butyl]-methyl-amide]",39,409,,49
